The record followed here is patent publication US20240043404A1 (AbbVie Inc., priority 2009, published 2024).

Some results are limits rather than exact numbers.

The first assay concerns RS4;11 cells. In words: RS4;11 cell viability assay (CellTiter Glo).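 Further: acute lymphoblastic leukemia line RS4,11, EC50 derived from percentage of viable cells after treatment relative to untreated controls, cell killing taken as a measure of Bcl-2 inhibition.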 The class given is cell-based, human. The note with it: Homo sapiens, RS4-11, 48 h, 50,000 cells per well, 10% human serum, 48 hours; read-out: RS4; 11 EC50 Values.
Protocol: The acute lymphoblastic leukemia (ALL) cell line RS4;11 was used as the primary human cell line to assess the cellular activity of Bcl-2 selective agents in vitro and their efficacy in vivo.
Cell cytotoxicity EC50 values were assessed using CellTiter Glo (Promega) according to the manufacturer's recommendations. The EC50 values were determined as a percentage of viable cells following treatment compared to the untreated control cells.
Take `CC1(C)CCC(CN2CCN(c3ccc(C(=O)NS(=O)(=O)c4cc(F)c(OCC5(F)CCOCC5)c(F)c4)c(Oc4cnc5[nH]ccc5c4)c3)CC2)=C(c2ccc(Cl)cc2)C1` [Example 310, 4-(4-{[2-(4-chlorophenyl)-4,4-dimethylcyclohex-1-en-1-yl]methyl}piperazin-1-yl)-N-({3,5-difluoro-4-[(4-fluorotetrahydro-2H-pyran-4-yl)methoxy]phenyl}sulfonyl)-2-(1H-pyrrolo[2,3-b]pyridin-5-yloxy)benzamide]: the EC50 is more than 1000 nM.

For the molecule `CC1(C)CCC(CN2CCN(c3ccc(C(=O)NS(=O)(=O)c4cnc(OCC5COCCO5)c(Br)c4)c(Oc4cnc5[nH]ccc5c4)c3)CC2)=C(c2ccc(Cl)cc2)C1` (stereo not drawn) [Example 50, N-{[5-bromo-6-(1,4-dioxan-2-ylmethoxy)pyridin-3-yl]sulfonyl}-4-(4-{[2-(4-chlorophenyl)-4,4-dimethylcyclohex-1-en-1-yl]methyl}piperazin-1-yl)-2-(1H-pyrrolo[2,3-b]pyridin-5-yloxy)benzamide], the EC50 was determined as 313 nM.

With `CC1(C)CCC(CN2CCN(c3ccc(C(=O)NS(=O)(=O)c4ccc(N[C@H]5CC[C@H](N6CCOCC6)CC5)c([N+](=O)[O-])c4)c(Oc4ccc5[nH]ccc5c4)c3)CC2)=C(c2ccc(Cl)cc2)C1` [Example 19, Trans-4-(4-{[2-(4-chlorophenyl)-4,4-dimethylcyclohex-1-en-1-yl]methyl}piperazin-1-yl)-2-(1H-indol-5-yloxy)-N-({4-[(4-morpholin-4-ylcyclohexyl)amino]-3-nitrophenyl}sulfonyl)benzamide], the EC50 amounted to 465 nM.

Turning to `CC1(C)CCC(CN2CCN(c3ccc(C(=O)NS(=O)(=O)c4ccc(N[C@H]5CCN(C6CCOCC6)C5)c([N+](=O)[O-])c4)c(Oc4cnc5[nH]ccc5c4)c3)CC2)=C(c2ccc(Cl)cc2)C1` [Example 132, 4-(4-{[2-(4-chlorophenyl)-4,4-dimethylcyclohex-1-en-1-yl]methyl}piperazin-1-yl)-N-[(3-nitro-4-{[(3S)-1-tetrahydro-2H-pyran-4-ylpyrrolidin-3-yl]amino}phenyl)sulfonyl]-2-(1H-pyrrolo[2,3-b]pyridin-5-yloxy)benzamide], the EC50 was found to be 22.1 nM.

For the molecule `CC1(C)CCC(CN2CCN(c3ccc(C(=O)NS(=O)(=O)c4ccc(OC[C@H]5CC[C@H](O)CC5)c(Cl)c4)c(Oc4cnc5[nH]ccc5c4)c3)CC2)=C(c2ccc(Cl)cc2)C1` [Example 305, N-({3-chloro-4-[(trans-4-hydroxycyclohexyl)methoxy]phenyl}sulfonyl)-4-(4-{[2-(4-chlorophenyl)-4,4-dimethylcyclohex-1-en-1-yl]methyl}piperazin-1-yl)-2-(1H-pyrrolo[2,3-b]pyridin-5-yloxy)benzamide], the EC50 came to 32.5 nM.

As for `CC1(C)CCC(CN2CCN(c3ccc(C(=O)NS(=O)(=O)c4ccc(OCC5CCN(C6COC6)CC5)c(Cl)c4)c(Oc4cnc5[nH]ccc5c4)c3)CC2)=C(c2ccc(Cl)cc2)C1` [Example 309, N-[(3-chloro-4-{[1-(oxetan-3-yl)piperidin-4-yl]methoxy}phenyl)sulfonyl]-4-(4-{[2-(4-chlorophenyl)-4,4-dimethylcyclohex-1-en-1-yl]methyl}piperazin-1-yl)-2-(1H-pyrrolo[2,3-b]pyridin-5-yloxy)benzamide], the EC50 was 52.4 nM.

Consider `CC1(C)CCC(CN2CCN(c3ccc(C(=O)NS(=O)(=O)c4ccc(NC5CCC6(CC5)OCCO6)c([N+](=O)[O-])c4)c(Oc4cnc5[nH]ccc5c4)c3)CC2)=C(c2ccc(Cl)cc2)C1` [Example 178, 4-(4-{[2-(4-chlorophenyl)-4,4-dimethylcyclohex-1-en-1-yl]methyl}piperazin-1-yl)-N-{[4-(1,4-dioxaspiro[4.5]dec-8-ylamino)-3-nitrophenyl]sulfonyl}-2-(1H-pyrrolo[2,3-b]pyridin-5-yloxy)benzamide], for which the EC50 worked out at 202 nM.

Regarding `CN(C)CC(=O)N1CCO[C@@H](COc2ncc(S(=O)(=O)NC(=O)c3ccc(N4CCN(CC5=C(c6ccc(Cl)cc6)CC(C)(C)CC5)CC4)cc3Oc3cnc4[nH]ccc4c3)cc2Cl)C1` [Example 247, N-[(5-chloro-6-{[(2R)-4-(N,N-dimethylglycyl)morpholin-2-yl]methoxy}pyridin-3-yl)sulfonyl]-4-(4-{[2-(4-chlorophenyl)-4,4-dimethylcyclohex-1-en-1-yl]methyl}piperazin-1-yl)-2-(1H-pyrrolo[2,3-b]pyridin-5-yloxy)benzamide], the EC50 worked out at 93 nM.

For the molecule `C#Cc1cc(S(=O)(=O)NC(=O)c2ccc(N3CCN(CC4=C(c5ccc(Cl)cc5)CC(C)(C)CC4)CC3)cc2Oc2cnc3[nH]ccc3c2)cnc1OCC1CCOCC1` [Example 69, 4-(4-{[2-(4-chlorophenyl)-4,4-dimethylcyclohex-1-en-1-yl]methyl}piperazin-1-yl)-N-{[5-ethynyl-6-(tetrahydro-2H-pyran-4-ylmethoxy)pyridin-3-yl]sulfonyl}-2-(1H-pyrrolo[2,3-b]pyridin-5-yloxy)benzamide], the EC50 came out at 1720 nM.

As to `CC1(C)CCC(CN2CCN(c3ccc(C(=O)NS(=O)(=O)c4ccc(OCC5CCOCC5)c(C#N)c4)c(Oc4cnc5[nH]ccc5c4)c3)CC2)=C(c2ccc(Cl)cc2)C1` [Example 284, 4-(4-{[2-(4-chlorophenyl)-4,4-dimethylcyclohex-1-en-1-yl]methyl}piperazin-1-yl)-N-{[3-cyano-4-(tetrahydro-2H-pyran-4-ylmethoxy)phenyl]sulfonyl}-2-(1H-pyrrolo[2,3-b]pyridin-5-yloxy)benzamide], the EC50 stood at 162 nM.

With `CO[C@H]1CC[C@@H](COc2ncc(S(=O)(=O)NC(=O)c3ccc(N4CCN(CC5=C(c6ccc(Cl)cc6)CC(C)(C)CC5)CC4)cc3Oc3cnc4[nH]ccc4c3)cc2C(F)(F)F)CC1` [Example 301, 4-(4-{[2-(4-chlorophenyl)-4,4-dimethylcyclohex-1-en-1-yl]methyl}piperazin-1-yl)-N-({6-[(cis-4-methoxycyclohexyl)methoxy]-5-(trifluoromethyl)pyridin-3-yl}sulfonyl)-2-(1H-pyrrolo[2,3-b]pyridin-5-yloxy)benzamide], the EC50 was more than 1000 nM.

Consider `CC(C)N1CCC2(CCC(c3ccc(Cl)cc3)=C(CN3CCN(c4ccc(C(=O)NS(=O)(=O)c5ccc(NCC6CCOCC6)c([N+](=O)[O-])c5)c(Oc5cnc6[nH]ccc6c5)c4)CC3)C2)CC1` [Example 266, 4-(4-{[9-(4-chlorophenyl)-3-isopropyl-3-azaspiro[5.5]undec-8-en-8-yl]methyl}piperazin-1-yl)-N-({3-nitro-4-[(tetrahydro-2H-pyran-4-ylmethyl)amino]phenyl}sulfonyl)-2-(1H-pyrrolo[2,3-b]pyridin-5-yloxy)benzamide], for which the EC50 came out at 7.29 nM.

For the molecule `CC1(C)CCC(CN2CCN(c3ccc(C(=O)NS(=O)(=O)c4ccc(OCC5(F)CCOCC5)c(C(F)(F)F)c4)c(Oc4cnc5[nH]ccc5c4)c3)CC2)=C(c2ccc(Cl)cc2)C1` [Example 307, 4-(4-{[2-(4-chlorophenyl)-4,4-dimethylcyclohex-1-en-1-yl]methyl}piperazin-1-yl)-N-({4-[(4-fluorotetrahydro-2H-pyran-4-yl)methoxy]-3-(trifluoromethyl)phenyl}sulfonyl)-2-(1H-pyrrolo[2,3-b]pyridin-5-yloxy)benzamide], the EC50 was found to be 128 nM.

Take `CC1(C)CCC(CN2CCN(c3ccc(C(=O)NS(=O)(=O)c4ccc(NCC5CCN(C6COC6)CC5)c([N+](=O)[O-])c4)c(Oc4cnc5[nH]ccc5c4)c3)CC2)=C(c2ccc(Cl)cc2)C1` [Example 163, 4-(4-{[2-(4-chlorophenyl)-4,4-dimethylcyclohex-1-en-1-yl]methyl}piperazin-1-yl)-N-[(3-nitro-4-{[(1-oxetan-3-ylpiperidin-4-yl)methyl]amino}phenyl)sulfonyl]-2-(1H-pyrrolo[2,3-b]pyridin-5-yloxy)benzamide]: the EC50 was 4.32 nM.

Consider `CC1(C)CCC(CN2CCN(c3ccc(C(=O)NS(=O)(=O)c4ccc5ccccc5c4)c(Oc4cnc5[nH]ccc5c4)c3)CC2)=C(c2ccc(Cl)cc2)C1` [Example 14, 4-(4-{[2-(4-chlorophenyl)-4,4-dimethylcyclohex-1-en-1-yl]methyl}piperazin-1-yl)-N-(2-naphthylsulfonyl)-2-(1H-pyrrolo[2,3-b]pyridin-5-yloxy)benzamide], for which the EC50 is 3890 nM.

Take `CC1(C)CCC(CN2CCN(c3ccc(C(=O)NS(=O)(=O)c4ccc(NC5CCN(C6CCOC(C)(C)C6)CC5)c([N+](=O)[O-])c4)c(Oc4cnc5[nH]ccc5c4)c3)CC2)=C(c2ccc(Cl)cc2)C1` (stereo not drawn) [Example 141, 4-(4-{[2-(4-chlorophenyl)-4,4-dimethylcyclohex-1-en-1-yl]methyl}piperazin-1-yl)-N-[(4-{[1-(2,2-dimethyltetrahydro-2H-pyran-4-yl)piperidin-4-yl]amino}-3-nitrophenyl)sulfonyl]-2-(1H-pyrrolo[2,3-b]pyridin-5-yloxy)benzamide]: the EC50 was found to be 20.4 nM.

Consider `COCCNc1ccc(S(=O)(=O)NC(=O)c2ccc(N3CCN(CC4=C(c5ccc(Cl)cc5)CC(C)(C)CC4)CC3)cc2Oc2ccc3[nH]ccc3c2)cc1S(=O)(=O)C(F)(F)F` [Example 93, 4-(4-{[2-(4-chlorophenyl)-4,4-dimethylcyclohex-1-en-1-yl]methyl}piperazin-1-yl)-2-(1H-indol-5-yloxy)-N-({4-[(2-methoxyethyl)amino]-3-[(trifluoromethyl)sulfonyl]phenyl}sulfonyl)benzamide], for which the EC50 is more than 5000 nM.

Take `CC1(C)CCC(CN2CCN(c3ccc(C(=O)NS(=O)(=O)c4ccc(OC[C@@H]5COCCO5)c([N+](=O)[O-])c4)c(Oc4cnc5[nH]ccc5c4)c3)CC2)=C(c2ccc(Cl)cc2)C1` [Example 28, 4-(4-{[2-(4-chlorophenyl)-4,4-dimethylcyclohex-1-en-1-yl]methyl}piperazin-1-yl)-N-({4-[(2S)-1,4-dioxan-2-ylmethoxy]-3-nitrophenyl}sulfonyl)-2-(1H-pyrrolo[2,3-b]pyridin-5-yloxy)benzamide]: the EC50 was determined as 41.9 nM.

The same assay, now with this note: Homo sapiens, RS4-11, Table 4, selected compounds in U.S. Pat. Application No. 12/631404; read-out: RS4; 11 EC50.
For `CC1(C)CCC(CN2CCN(c3ccc(C(=O)NS(=O)(=O)c4ccc(N[C@H]5CC[C@H](N6CCOCC6)CC5)c([N+](=O)[O-])c4)c(Oc4ccc5[nH]ccc5c4)c3)CC2)=C(c2ccc(Cl)cc2)C1` [Example 19, Trans-4-(4-{[2-(4-chlorophenyl)-4,4-dimethylcyclohex-1-en-1-yl]methyl}piperazin-1-yl)-2-(1H-indol-5-yloxy)-N-({4-[(4-morpholin-4-ylcyclohexyl)amino]-3-nitrophenyl}sulfonyl)benzamide], the EC50 came out at 465 nM.

The same assay, now with this note: Homo sapiens, RS4-11, Table 5, direct comparison Z=N with corresponding analogs Z=C; read-out: RS4; 11 EC50.
Consider `CC1(C)CCC(CN2CCN(c3ccc(C(=O)NS(=O)(=O)c4ccc(N[C@H]5CC[C@H](N6CCOCC6)CC5)c([N+](=O)[O-])c4)c(Oc4ccc5[nH]ccc5c4)c3)CC2)=C(c2ccc(Cl)cc2)C1` [Example 19, Trans-4-(4-{[2-(4-chlorophenyl)-4,4-dimethylcyclohex-1-en-1-yl]methyl}piperazin-1-yl)-2-(1H-indol-5-yloxy)-N-({4-[(4-morpholin-4-ylcyclohexyl)amino]-3-nitrophenyl}sulfonyl)benzamide], for which the EC50 was determined as 465 nM.

`COCCNc1ccc(S(=O)(=O)NC(=O)c2ccc(N3CCN(CC4=C(c5ccc(Cl)cc5)CC(C)(C)CC4)CC3)cc2Oc2ccc3[nH]ccc3c2)cc1S(=O)(=O)C(F)(F)F` [Example 93, 4-(4-{[2-(4-chlorophenyl)-4,4-dimethylcyclohex-1-en-1-yl]methyl}piperazin-1-yl)-2-(1H-indol-5-yloxy)-N-({4-[(2-methoxyethyl)amino]-3-[(trifluoromethyl)sulfonyl]phenyl}sulfonyl)benzamide]: the EC50 was more than 5000 nM.
